# Assay results from US9364496B2 (ONCOGENEX TECHNOLOGIES INC., priority 2013, dated 2016).
# “And” between values parts separate entries of the source, which are not always exact repeats. Equal entries are not always repeated. “Also recorded” adds a separate entry of the source. Marks after values point to notes of the source that are not given here. Oligonucleotides are written 5' to 3', each unit as a sugar letter and its base; * is a phosphorothioate linkage, no mark a phosphodiester; rarer units and linkages stand in square brackets, end groups in braces. Plain capitals give the bases only. e = 2'-O-(2-methoxyethyl) (MOE); [5mC] = 5-methylcytosine; d = 2'-deoxy (DNA)
# Experiments:
# [1] = in vivo
# [2] = Phase I healthy volunteer study TV1011-DDI-102, 640 mg custirsen; format: in vivo
# From the text: Three subjects withdrew from the study due to these constitutional symptoms.
# [3] = test system: RPMI 8226 (human myeloma) xenograft; assay: In vivo activity of custirsen with Velcade, RPMI 8226 xenograft (Example 14); conditions: for % of baseline / Δ %: weight
# Description: The cells were implanted subcutaneously into female SCID mice with 7×10^6 cells inoculum.
# Tumors and body weights were measured weekly until termination of the study on day 71. Response to treatment was evaluated for tumor growth inhibition (TGI) and tumor growth delay (TGD).
# 70 CB.17 SCID female mice, 4-6 weeks old, 16-20 grams, obtained from Harlan animal breeding center.
# Sample from the cell suspension was taken for counting (0.3 ml in duplicates for CEDEX) before spun down. Cell viability was 85.6% and live cell concentration was 167×10^5 cells/ml. The pellet was resuspended in HBSS to a final volume of 8 ml.
# Tumors were implanted subcutaneously with RPMI-8226 cells into the right flank of the mouse on Day 0. Each animal received a s.c. injection 7×10^6 cells in 0.1 ml suspension. On day 20, mice were sorted by the optimal tumor volume ([…]) and were allocated into 5 groups of 10 mice. Mice were individually tagged and their tumor volume and body weight were monitored weekly during the study. Tumor size was measured by caliper and calculated using the formula: […]
# The treatment started on […] (0.2 ml per 20 grams v/w) and continued till day 52, after which the remaining mice were left for observation until day 71.
# [4] = Custirsen 40 mg/kg ip qd*5, twk, day 51
# [5] = OGX 40 ip qd*5, twk, Day 48, group mean
# [6] = OGX 40 ip qd*5, twk, Day 48, individual mice, listed as OGX
# [7] = OGX 40 ip qd*5, twk, Day 51, group mean
# [8] = OGX 40 ip qd*5, twk, Day 51, individual mice, listed as OGX
# [9] = OGX 40 ip qd*5, twk, Day 58, individual mice, listed as OGX
# [10] = OGX 40 ip qd*5, twk, Day 63, individual mice, listed as OGX
# [11] = OGX 40 ip qd*5, twk, earlier day (day not given), group mean
# [12] = OGX 40 ip qd*5, twk, earlier day (day not given), group mean, tumor
# [13] = OGX 40 ip qd*5, twk, earlier day (day not given), individual mouse, listed as OGX
# [14] = OGX 40 ip qd*5, twk, earlier day (day not given), individual mouse, tumor, listed as OGX
# [15] = OGX 40 ip qd*5, twk, group Mean, n 9
substance,measurement,setting,value
"Custirsen: anti-clusterin antisense oligonucleotide CAGCAGCAGAGTCTTCATCAT, phosphorothioate backbone, 2′-O-methoxyethyl at nucleotides 1-4 and 18-21, 5-methylcytosines at 1, 4, 19 (antisense e[5mC]*eA*eG*e[5mC]*dA*dG*dC*dA*dG*dA*dG*dT*dC*dT*dT*dC*dA*eT*e[5mC]*eA*eT; listed as Homo sapiens)",INR values,[1],≤ 1.5
same,reports of grade 2 toxicity for PTT,[1],2 reports
same,time of peak of prolonged coagulation parameters after dose,"[2]; human, in vivo",around 48 hours
same,coagulation parameters (PTT and PT),"[2]; most subjects, starting a few hours after the first loading dose",Slightly prolonged
same,AEs related to custirsen,"[2]; multiple 640 mg doses, after the first infusion",93 AEs
same,deaths or other SAEs,"[2]; single and repeated doses of 640 mg custirsen, healthy volunteers",No deaths or other SAEs were reported; also recorded: no SAEs
same,Max BW (mean) reduction,"[3]; Custirsen 40 mg/kg ip qd*5, twk, day 34",−4.7%
same,% TGI day 51,[3]; [4],46* %
same,No. of CR,[3]; [4],0
same,No. of PR,[3]; [4],0
same,No. of TRD,[3]; [4],1
same,No. og nTRD,[3]; [4],0
same,"Δ mean tumor volume, (mean ± se)",[3]; [4],667 ± 87
same,% TGI day 51,"[3]; Custirsen 40 mg/kg ip qd*5, twk, day 51, listed as Custersin",46%
same,volume,[3]; [5],649.2
same,weight,[3]; [5],19.8
same,Δ % (weight),[3]; [5],5.3%
same,Δ volume,[3]; [5],503.8
same,Δ weight,[3]; [5],1.0
same,% of baseline (weight),[3]; [6],105.6% and 110.6% and 103.7% and 103.8% and 102.1% and 113.0% and 103.2% and 101.2%
same,volume,[3]; [6],495 and 354 and 689 and 763 and 717 and 1076 and 483 and 593 and 671
same,weight,[3]; [6],18.73 and 18.93 and 21.36 and 20.43 and 19.03 and 20.83 and 20.79 and 18.98 and 19.13
same,Δ % (weight),[3]; [6],5.6% and 10.6% and 3.7% and 3.8% and 2.1% and 13.0% and 4.2% and 3.2% and 1.2%
same,Δ volume,[3]; [6],371.9 and 229.1 and 550.6 and 621.8 and 571.9 and 925.7 and 329.0 and 431.2 and 502.7
same,Δ weight,[3]; [6],1.0 and 1.8 and 0.8 (3×) and 0.4 and 2.4 and 0.6 and 0.2
same,volume,[3]; [7],812.8
same,weight,[3]; [7],19.8
same,Δ % (weight),[3]; [7],5.3%
same,Δ volume,[3]; [7],667.3
same,Δ weight,[3]; [7],1.0
same,% of baseline (weight),[3]; [8],103.8% and 109.8% and 102.5% and 102.7% and 114.2% and 100.4%
same,volume,[3]; [8],687 and 392 and 817 and 923 and 1031 and 1324 and 603 and 734 and 804
same,weight,[3]; [8],18.40 and 18.79 and 21.71 and 20.17 and 19.13 and 21.06 and 20.78 and 18.47 and 19.87
same,Δ % (weight),[3]; [8],3.8% and 9.8% and 5.4% and 2.5% and 2.7% and 14.2% and 4.2% and 0.4% and 5.1%
same,Δ volume,[3]; [8],563.6 and 267.5 and 678.0 and 781.6 and 885.6 and 1173.4 and 448.7 and 571.8 and 635.5
same,Δ weight,[3]; [8],0.7 and 1.7 and 1.1 and 0.5 (2×) and 2.6 and 0.8 and 0.1 and 1.0
same,% of baseline (weight),[3]; [9],105.6% and 110.0% and 108.4%
same,volume,[3]; [9],797 and 560 and 1319
same,weight,[3]; [9],18.72 and 18.84 and 22.31
same,Δ % (weight),[3]; [9],5.6% and 10.0% and 8.4%
same,Δ volume,[3]; [9],673.0 and 435.6 and 1180.5
same,Δ weight,[3]; [9],1.0 and 1.7 (2×)
same,% of baseline (weight),[3]; [10],112.4% and 108.7%
same,volume,[3]; [10],1127 and 848 and 2000
same,weight,[3]; [10],18.57 and 19.25 and 22.39
same,Δ % (weight),[3]; [10],4.7% and 12.4% and 8.7%
same,Δ volume,[3]; [10],1003.4 and 723.2 and 1861.0
same,Δ weight,[3]; [10],0.8 and 2.1 and 1.8
same,weight,[3]; [11],20.3
same,Δ weight,[3]; [11],1.5
same,volume,[3]; [12],1278.9
same,Δ volume,[3]; [12],1133.5
same,% of baseline,[3]; [11],108.0%
same,Δ %,[3]; [11],8.0%
same,weight,[3]; [13],20.77 and 19.53 and 21.42 and 21.45 and 19.51 and 20.43
same,Δ weight,[3]; [13],1.1 (2×) and 0.9 and 3.0 and 1.5 (2×)
same,volume,[3]; [14],1418 and 1693 and 1970 and 1060 and 1218 and 1475
same,Δ volume,[3]; [14],1277.2 and 1547.4 and 1819.3 and 905.2 and 1056.5 and 1306.4
same,% of baseline,[3]; [13],116.2% and 107.5% and 108.1%
same,Δ %,[3]; [13],5.5% and 4.8% and 16.2% and 7.5% and 6.0% and 8.1%
same,Day 41 % of baseline (weight),[3]; [15],101.5%
same,Day 41 volume,[3]; [15],395.4
same,Day 41 weight,[3]; [15],19.1
